In publication doi:10.1101/2023.03.24.534094v2 (biorxiv, 2023):
Read-outs that look alike come from different tables or passages of the source. Blank lines part the entries; values can stand above or below the compound they belong to.

What was measured:
Assay in all cases: biochemical
[1] = biological target: T1, DRAK2 (Homo sapiens, UniProt O94768)
T1 sequence (O94768 1-372): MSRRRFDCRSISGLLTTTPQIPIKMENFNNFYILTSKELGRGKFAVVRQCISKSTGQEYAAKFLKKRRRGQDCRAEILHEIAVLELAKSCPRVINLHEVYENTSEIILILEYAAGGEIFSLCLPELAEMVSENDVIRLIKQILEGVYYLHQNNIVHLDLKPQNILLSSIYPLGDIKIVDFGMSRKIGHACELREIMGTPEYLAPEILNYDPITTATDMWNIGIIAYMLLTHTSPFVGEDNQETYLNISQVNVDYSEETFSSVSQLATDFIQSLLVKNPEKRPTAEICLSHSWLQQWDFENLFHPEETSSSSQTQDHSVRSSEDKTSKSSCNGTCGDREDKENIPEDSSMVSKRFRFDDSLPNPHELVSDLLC

[2] = biological target: T2, FECH (Homo sapiens, UniProt P22830)
T2 sequence (P22830 1-423): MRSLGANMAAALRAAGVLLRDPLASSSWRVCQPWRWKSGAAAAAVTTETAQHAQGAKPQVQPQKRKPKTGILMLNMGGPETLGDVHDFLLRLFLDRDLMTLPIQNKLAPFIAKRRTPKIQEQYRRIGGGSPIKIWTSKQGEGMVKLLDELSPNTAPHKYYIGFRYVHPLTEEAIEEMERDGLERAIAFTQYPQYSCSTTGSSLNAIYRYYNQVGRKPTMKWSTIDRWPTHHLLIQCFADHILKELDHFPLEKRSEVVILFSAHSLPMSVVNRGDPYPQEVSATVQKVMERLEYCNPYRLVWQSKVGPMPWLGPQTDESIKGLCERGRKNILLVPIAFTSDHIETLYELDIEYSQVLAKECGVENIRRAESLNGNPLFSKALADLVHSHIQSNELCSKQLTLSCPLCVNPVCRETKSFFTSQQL

[3] = biological target: T3, GAK (Homo sapiens, UniProt O14976)
T3 sequence (O14976 1-1311): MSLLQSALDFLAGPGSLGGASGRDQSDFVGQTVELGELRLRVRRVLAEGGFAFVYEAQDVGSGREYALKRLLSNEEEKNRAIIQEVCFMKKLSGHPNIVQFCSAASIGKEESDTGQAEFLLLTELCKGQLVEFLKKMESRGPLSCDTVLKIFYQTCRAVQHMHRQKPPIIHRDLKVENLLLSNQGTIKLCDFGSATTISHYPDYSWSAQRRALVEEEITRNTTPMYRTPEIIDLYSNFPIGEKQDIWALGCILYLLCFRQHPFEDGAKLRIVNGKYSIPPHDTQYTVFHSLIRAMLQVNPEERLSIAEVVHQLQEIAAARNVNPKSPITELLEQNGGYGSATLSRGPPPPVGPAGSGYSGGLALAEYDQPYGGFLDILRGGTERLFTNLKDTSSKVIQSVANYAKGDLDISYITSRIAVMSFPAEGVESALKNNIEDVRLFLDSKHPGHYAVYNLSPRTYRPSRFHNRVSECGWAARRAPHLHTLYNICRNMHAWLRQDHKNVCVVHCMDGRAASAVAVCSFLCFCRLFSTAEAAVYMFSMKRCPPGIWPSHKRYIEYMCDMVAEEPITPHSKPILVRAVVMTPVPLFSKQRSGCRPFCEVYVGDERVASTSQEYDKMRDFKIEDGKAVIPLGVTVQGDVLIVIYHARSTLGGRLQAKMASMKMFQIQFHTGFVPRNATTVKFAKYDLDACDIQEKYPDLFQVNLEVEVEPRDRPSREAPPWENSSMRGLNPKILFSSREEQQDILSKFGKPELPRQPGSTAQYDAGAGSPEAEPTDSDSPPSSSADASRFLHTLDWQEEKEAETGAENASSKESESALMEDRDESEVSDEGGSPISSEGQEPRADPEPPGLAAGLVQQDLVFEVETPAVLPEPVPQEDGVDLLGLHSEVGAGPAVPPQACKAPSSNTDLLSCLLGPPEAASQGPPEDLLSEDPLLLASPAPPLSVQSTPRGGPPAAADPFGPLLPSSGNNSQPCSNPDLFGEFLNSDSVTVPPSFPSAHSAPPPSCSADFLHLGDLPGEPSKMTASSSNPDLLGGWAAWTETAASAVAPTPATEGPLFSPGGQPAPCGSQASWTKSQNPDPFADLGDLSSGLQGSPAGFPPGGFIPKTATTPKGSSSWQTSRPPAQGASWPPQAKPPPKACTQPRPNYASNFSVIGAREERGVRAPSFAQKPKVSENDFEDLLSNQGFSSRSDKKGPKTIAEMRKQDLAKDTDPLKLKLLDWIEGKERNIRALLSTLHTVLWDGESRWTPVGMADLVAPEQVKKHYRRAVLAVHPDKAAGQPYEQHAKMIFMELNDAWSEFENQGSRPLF

[4] = biological target: RSK1b (Homo sapiens, UniProt Q15418)
[5] = biological target: T4, VRK1 (Homo sapiens, UniProt Q99986)
T4 sequence (Q99986 1-396): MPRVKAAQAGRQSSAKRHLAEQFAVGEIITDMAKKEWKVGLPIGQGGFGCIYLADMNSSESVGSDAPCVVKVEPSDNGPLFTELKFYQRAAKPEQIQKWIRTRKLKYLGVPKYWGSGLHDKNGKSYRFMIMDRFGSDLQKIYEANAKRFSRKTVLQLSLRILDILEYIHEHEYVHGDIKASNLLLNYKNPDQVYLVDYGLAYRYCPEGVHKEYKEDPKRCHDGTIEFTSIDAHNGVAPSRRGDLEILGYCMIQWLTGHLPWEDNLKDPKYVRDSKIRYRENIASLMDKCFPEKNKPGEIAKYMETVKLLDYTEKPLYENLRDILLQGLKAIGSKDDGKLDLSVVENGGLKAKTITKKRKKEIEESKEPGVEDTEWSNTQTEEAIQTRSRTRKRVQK

Sequence of RSK1b (Q15418 whole entry): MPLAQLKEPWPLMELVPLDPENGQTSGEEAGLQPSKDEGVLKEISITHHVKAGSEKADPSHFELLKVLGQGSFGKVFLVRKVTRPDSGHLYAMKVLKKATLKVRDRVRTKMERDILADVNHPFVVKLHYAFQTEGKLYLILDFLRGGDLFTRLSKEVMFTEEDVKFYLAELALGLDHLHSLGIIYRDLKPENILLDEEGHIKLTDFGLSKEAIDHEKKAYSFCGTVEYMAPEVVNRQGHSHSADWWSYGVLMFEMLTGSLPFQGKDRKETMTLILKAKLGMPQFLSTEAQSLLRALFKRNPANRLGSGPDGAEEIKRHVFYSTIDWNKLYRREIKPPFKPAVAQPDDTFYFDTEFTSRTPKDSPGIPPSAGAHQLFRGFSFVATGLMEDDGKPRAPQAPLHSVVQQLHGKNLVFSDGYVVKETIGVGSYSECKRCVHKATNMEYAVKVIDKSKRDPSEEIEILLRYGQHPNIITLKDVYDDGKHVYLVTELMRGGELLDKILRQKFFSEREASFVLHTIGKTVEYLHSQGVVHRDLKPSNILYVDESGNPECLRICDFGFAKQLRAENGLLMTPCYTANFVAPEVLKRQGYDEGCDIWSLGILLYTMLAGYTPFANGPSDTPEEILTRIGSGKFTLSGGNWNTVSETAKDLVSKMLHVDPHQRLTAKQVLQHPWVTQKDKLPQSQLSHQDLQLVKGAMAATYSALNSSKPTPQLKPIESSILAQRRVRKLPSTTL

ΔTm at 10 µM ([1]; read-out: dTm 6): -0.2 °C
ΔTm at 10 µM ([2]; read-out: dTm 6): 0.2 °C
ΔTm at 10 µM ([3]; read-out: dTm 6): 4.1 °C
ΔTm at 10 µM ([4]; read-out: dTm 6): 6.3 °C
ΔTm at 10 µM ([5]; read-out: dTm 6): 0.3 °C
Compound: CNc1ncc2cc(-c3cc(Br)ccc3Cl)c(=O)n(CCCCN)c2n1 [compound 6, 8-(4-Aminobutyl)-6-(5-bromo-2-chlorophenyl)-2-(methylamino)pyrido[2,3-d]pyrimidin-7(8H)-one]

ΔTm at 10 µM ([1]; read-out: dTm MR22 (5)): 0.1 °C
ΔTm at 10 µM ([2]; read-out: dTm MR22 (5)): 0.3 °C
ΔTm at 10 µM ([3]; read-out: dTm MR22 (5)): 5.4 °C
ΔTm at 10 µM ([4]; read-out: dTm MR22 (5)): 5.4 °C
ΔTm at 10 µM ([5]; read-out: dTm MR22 (5)): 0.4 °C
Compound: CNc1ncc2cc(-c3cc(F)ccc3F)c(=O)n(CCCCN)c2n1 [compound 5, 8-(4-Aminobutyl)-6-(2,5-difluorophenyl)-2-(methylamino)pyrido[2,3-d]pyrimidin-7(8H)-one]

Continued, compound first:

Compound: CNc1ncc2cc(-c3cc(Br)ccc3Cl)c(=O)n(C[C@H]3OC[C@H](N)CO3)c2n1 [compound 7, 8-(((2r,5r)-5-Amino-1,3-dioxan-2-yl)methyl)-6-(5-bromo-2-chlorophenyl)-2-(methylamino)pyrido[2,3-d]pyrimidin-7(8H)-one]
ΔTm at 10 µM ([1]; read-out: dTm 7): 0.1 °C
ΔTm at 10 µM ([2]; read-out: dTm 7): -1.1 °C
ΔTm at 10 µM ([3]; read-out: dTm 7): 2.6 °C
ΔTm at 10 µM ([4]; read-out: dTm 7): 5.1 °C
ΔTm at 10 µM ([5]; read-out: dTm 7): 0.5 °C

Compound: CNc1ncc2cc(-c3ccc(-c4cccc(C)n4)cc3Cl)c(=O)n(CC3OCC(N)CO3)c2n1 (stereo not drawn) [compound 2, G-5555]
dTm G-5555 (2) ([1]; 10 µM, binder): -0.3 °C
dTm G-5555 (2) ([3]; 10 µM, binder): 6.1 °C
dTm G-5555 (2) ([4]; 10 µM, binder): 0.0 °C
dTm G-5555 (2) ([5]; 10 µM, binder): -0.1 °C

Compound: CNc1ncc2cc(-c3ccccc3Cl)c(=O)n(CCCCN)c2n1 [compound 4, 8-(4-Aminobutyl)-6-(2-chlorophenyl)-2-(methylamino)pyrido[2,3-d]pyrimidin-7(8H)-one]
ΔTm at 10 µM ([1]; read-out: dTm MR21 (4)): -0.5 °C
ΔTm at 10 µM ([2]; read-out: dTm MR21 (4)): -1.1 °C
ΔTm at 10 µM ([3]; read-out: dTm MR21 (4)): 6.6 °C
ΔTm at 10 µM ([4]; read-out: dTm MR21 (4)): 5.8 °C
ΔTm at 10 µM ([5]; read-out: dTm MR21 (4)): -0.4 °C
